Measurements reported in US20180256914A1, “COMPOSITIONS AND METHODS FOR THE TREATMENT OF MUCOSITIS ASSOCIATED WITH TREATMENT-INDUCED NEUTROPENIA” (KLOX TECHNOLOGIES INC., priority 2015, published 2018).

Legend:
[1] = Neutralisation by Trolox of ROS produced by gel containing 12% urea peroxide; details: 2 mM Trolox; FIG. 2
P. aeruginosa = assay type: cell-based, Pseudomonas aeruginosa; details: Trolox at concentrations above 2 mM; data not shown

Compound: Cc1c(C)c2c(c(C)c1O)CCC(C)(C(=O)O)O2 (centres unmarked) [Trolox]
- neutralization of ROS produced by the gel containing 12% urea peroxide [1]: neutralize the ROS
- cytotoxicity to P. aeruginosa (P. aeruginosa): not to be cytotoxic
